These results are taken from US20040259766A1, “Use of glutamate, glutamate derivatives or metabolites, glutamate analogues or mixtures thereof for the manufacture of a composition for the treatment of osteoporosis” (priority 2004, published 2004).

Assay [1] concerns humerus and femur. Put plainly: Three point bending test (Instron 4302) of humerus and femur of piglets given Ala-Gln or AKG orally. The class given is in vivo, pig. As to conditions: piglets at 35 days of postnatal life; 0.4 g/kg b.w. oral once a day; mean ± SEM. As for the experimental part:
(§1) All piglets suckled sow milk before weaning. After weaning at the age of 28 days piglets were fed ad libitum with a standard mixture Premix prestarter (PP) (Food plant-Motycz, Poland) and free access to water was allowed. Piglets were allotted to three experimental trials:
(§2) 2—Second group, receiving 0.4 g/kg/b.w. of L-alanyl-L-glutamine (ala-gin), (2 ml solution/kg b.w.)
(§3) At the age of 35 days, piglets were sacrificed, eviscerated and bones were sampled.
(§4) Using Instron 4302 apparatus and applying three point bending test as presented in FIG. 1, the following properties of the bones were determined from curves showing the relation between load and deflection: […]

Assay [2] concerns ribs. Put plainly: Three point bending test (Instron 4302) of ribs of piglets given Ala-Gln or AKG orally. The class given is in vivo, pig. On the procedure: as §1, §2, §3, §4
For assay [3], the system named is humerus and femur. Put plainly: Architectural and geometric properties of humerus and femur of piglets. The class given is in vivo, pig. As to conditions: piglets at 35 days of postnatal life; 0.4 g/kg b.w. oral once a day; mean ± SEM. On the procedure: as §1, §2, §3
(§5) Architectural and geometric properties of bone were estimated based on measurements of horizontal and vertical cross section as well as interior and exterior diameter of the bone.
(§6) Mean relative wall thickness (MRWT) expresses the ratio of wall to lumen measures and serves as an indicator in the process of architectural adaptation of bone to physiological stress during the growth of the body. When the lumen increases with unchanged wall thickness the MRWT decreases but bone resistance to strain increases.

Assay [4] relates to ribs. Put plainly: Architectural and geometric properties of ribs of piglets. As to conditions: piglets at 35 days of postnatal life; 0.4 g/kg b.w. oral once a day; mean ± SEM. The class given is in vivo, pig. On the procedure: as §1, §2, §3, §5, §6
The test system of another assay is femur. Put plainly: Femur bone mineral density in intact, shame operated and ovariectomized rats given AKG in drinking water. In kind it is in vivo, Wistar rat. As to conditions: in all three groups (INT, SHO, OVX); 60 days of drinking water with AKG; p<0.01 in all groups.
A short description of assay [5]: Gain of bodyweight of piglets during postnatal life. The class given is in vivo, pig. On the procedure: as §1, §2, §3
The next assay concerns right femur. Put plainly: Bone mineral density (DEXA) of the right femur of piglets. As to conditions: right femur proximal and distal metaphysis, 21 and 35 days (FIG. 17, 18). The class given is in vivo, pig.
In a further assay the test system is ulna bone. As to conditions: group A, 0.8 g/kg body weight oral.
Where [6] appears, read: piglets at 35 days of postnatal life, 0.4 g/kg b.w. oral once a day, mean ± SEM.

Where two headings read alike, the source gives them in different places. Marks after values point to notes of the source that are not given here. Residues, ends and D or L forms follow the SMILES beside them.

Protocol for right femur: (§7) Bone mineral density (BMD) was analysed by DEXA (Dual Energy X-ray Absorptiometry) using LUNAR apparatus.
Protocol for ulna bone: During general anesthetic surgery, the ulnar is broken and optionally denervated. On the first day after operation saline, AKG or Ala-Gln is administered orally at a dose of 0.8 g/kg body weight in 2 ml.
After the experimental period, the turkeys will be weighed and sacrified in order to measure bone mineral density (BMD).
as §7

On to `O=C(O)CCC(=O)C(=O)O` [AKG, alpha-ketoglutaric acid], for which, in the assay with humerus and femur [1], the “Bone maximum elastic strength (Wy) femur” value is reported as 1042.9 ± 73.66 N, the “Bone maximum elastic strength (Wy) humerus” value is reported as 726.0 ± 37.73 N, the “Bone ultimate strength (Wf) femur” value worked out at 1123.0 ± 75.09 N and the “Bone ultimate strength (Wf) humerus” value came out at 857.6 ± 45.42 N. The “Yielding stress of the 5th rib” value in the assay on ribs [2] (35-days-old piglets, versus control, FIG. 11) was “significant increase”. Further, in the assay with ribs [2] (setting [6]), the “Bone maximum elastic strength (Wy) (ribs 4-9)” value turned out to be 522.5 ± 17.97 N, the “Moment of ultimate strength ribs (4-9)” value worked out at 737.445 ± 23.85 N and the “Ultimate strength (Wf) (ribs 4-9)” value came out at 585.1 ± 18.5 N. In the assay with humerus and femur [3], the “Cross-sectional area (A) femur” value is recorded as 64.7 ± 3.82* mm^2, the “Cross-sectional area (A) humerus” value was 52.7 ± 4.1* mm^2, the “Second moment of inertia (Ix) femur” value is listed as 696.5 ± 48.7* mm^4 and the “Second moment of inertia (Ix) humerus” value was 459.4 ± 59.42* mm^4. In the assay with ribs [4], the “Cross sectional area (A) (ribs 4-9)” value is given as 10.52 ± 0.35* mm^2, the “MRWT (ribs 4-9)” value turned out to be 0.60 ± 0.026 and the “Second moment of inertia (ribs 4-9)” value is recorded as 15.42 ± 0.93* mm^4. Moreover, the “BMD, difference between AKG treated rats and placebo treated rats” value with femur was “about 10%”. In assay [5] (p>0.01 in comparison to Ala-Gln as printed), the “Bodyweight of the piglets versus control group and Ala-Gln group” value was “more dramatic”. Besides, the “Bone mineralization versus piglets receiving placebo” value in the assay with right femur is on record as “higher”. Moreover, the “BMD of the ulna bone, difference compared to saline treated turkeys” value with ulna bone (left wing control (intact), p<0.01) is recorded as 25%. In addition, the “BMD of the ulna bone, difference compared to saline treated turkeys” value with ulna bone (right wing experimental (neurectomized, fracture of the ulnae), p<0.055) is given as “about 11%”.
`C[C@H](N)C(=O)N[C@@H](CCC(N)=O)C(=O)O` [Ala-Gln, L-alanyl-L-glutamine, reference compound] (H-Ala-Gln-OH): in the assay with humerus and femur [1], the “Bone maximum elastic strength (Wy) femur” value worked out at 1016.8 ± 46.68 N, the “Bone maximum elastic strength (Wy) humerus” value stood at 638.7 ± 9.91 N and the “Bone ultimate strength (Wf) humerus” value is 743.0 ± 15.71∇ N. Besides, in the assay on humerus and femur [3], the “Mean relative wall thickness (MRWT) femur” value stood at 0.88 ± 0.12, the “Mean relative wall thickness (MRWT) humerus” value is 0.64 ± 0.07 and the “Second moment of inertia (Ix) humerus” value was 368.4 ± 24.31* mm^4. Further, the “MRWT (ribs 4-9)” value in the assay on ribs [4] is 0.70 ± 0.038. Further, in assay [5] (day 14, 0.4 g/kg b.w. oral), the “Bodyweight difference (control group less than Ala-Gln treated group)” value is recorded as “about 690 g”. The “Bodyweight difference (control group less than Ala-Gln treated group)” value in assay [5] (day three, 0.4 g/kg b.w. oral) is on record as “about 96 g”.
